Measured values published in ChEMBL document CHEMBL3991601, “The target landscape of clinical kinase drugs” (Science, 2017).
Activity calls are given as the source filed them. Rule as the data show it, for most assays here: actives have a measured Kd and inactives only a lower limit.

Assays:
[1] = biological target: T1, Peroxisomal acyl-coenzyme A oxidase 3 (Homo sapiens, UniProt O15254)
T1 sequence (O15254 whole entry): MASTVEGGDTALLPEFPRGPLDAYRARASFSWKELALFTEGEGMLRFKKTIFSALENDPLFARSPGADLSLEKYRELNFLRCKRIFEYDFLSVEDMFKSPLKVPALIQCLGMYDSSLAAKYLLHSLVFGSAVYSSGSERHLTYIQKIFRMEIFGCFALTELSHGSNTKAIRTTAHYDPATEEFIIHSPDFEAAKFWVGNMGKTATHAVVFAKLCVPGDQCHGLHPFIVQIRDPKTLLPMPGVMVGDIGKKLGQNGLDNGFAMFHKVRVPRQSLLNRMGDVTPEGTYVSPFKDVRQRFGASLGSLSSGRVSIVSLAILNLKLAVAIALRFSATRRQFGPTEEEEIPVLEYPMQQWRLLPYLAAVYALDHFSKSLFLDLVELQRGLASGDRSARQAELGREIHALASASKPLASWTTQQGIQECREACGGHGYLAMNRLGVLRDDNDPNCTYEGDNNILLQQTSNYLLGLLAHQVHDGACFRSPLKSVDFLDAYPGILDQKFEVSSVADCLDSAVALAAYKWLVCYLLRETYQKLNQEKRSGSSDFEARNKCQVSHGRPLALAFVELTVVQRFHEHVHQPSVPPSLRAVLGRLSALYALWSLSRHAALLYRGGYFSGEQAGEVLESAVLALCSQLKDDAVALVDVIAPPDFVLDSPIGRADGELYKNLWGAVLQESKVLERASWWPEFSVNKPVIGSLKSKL

[2] = biological target: Cyclin-dependent kinase 3 (Homo sapiens, UniProt Q00526)
Sequence of Cyclin-dependent kinase 3 (Q00526 whole entry): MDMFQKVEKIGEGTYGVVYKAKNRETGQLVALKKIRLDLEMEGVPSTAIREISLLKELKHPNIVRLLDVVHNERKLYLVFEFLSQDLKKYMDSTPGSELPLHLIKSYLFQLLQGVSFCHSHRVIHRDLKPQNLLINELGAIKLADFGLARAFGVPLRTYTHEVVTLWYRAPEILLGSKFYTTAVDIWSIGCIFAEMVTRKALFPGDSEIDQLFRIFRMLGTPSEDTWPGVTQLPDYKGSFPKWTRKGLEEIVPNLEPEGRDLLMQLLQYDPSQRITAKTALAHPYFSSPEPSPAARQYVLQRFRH

[3] = biological target: Bone morphogenetic protein receptor type-1B (Homo sapiens, UniProt O00238)
Sequence of Bone morphogenetic protein receptor type-1B (O00238 whole entry): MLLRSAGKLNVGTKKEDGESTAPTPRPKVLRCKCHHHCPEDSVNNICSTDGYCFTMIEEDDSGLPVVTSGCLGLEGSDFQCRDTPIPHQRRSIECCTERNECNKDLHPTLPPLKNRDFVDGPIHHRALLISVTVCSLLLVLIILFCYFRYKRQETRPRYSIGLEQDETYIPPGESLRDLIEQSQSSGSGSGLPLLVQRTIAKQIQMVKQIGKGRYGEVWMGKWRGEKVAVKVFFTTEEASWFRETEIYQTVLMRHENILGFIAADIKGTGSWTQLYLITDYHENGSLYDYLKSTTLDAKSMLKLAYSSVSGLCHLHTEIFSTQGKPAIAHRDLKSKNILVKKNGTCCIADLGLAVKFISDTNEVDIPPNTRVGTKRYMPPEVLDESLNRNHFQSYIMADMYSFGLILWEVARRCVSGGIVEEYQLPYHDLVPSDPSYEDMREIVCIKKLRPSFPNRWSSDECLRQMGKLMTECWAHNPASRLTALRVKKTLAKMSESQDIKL

[4] = biological target: Mitogen-activated protein kinase 10 (Homo sapiens, UniProt P53779)
Sequence of Mitogen-activated protein kinase 10 (P53779 whole entry): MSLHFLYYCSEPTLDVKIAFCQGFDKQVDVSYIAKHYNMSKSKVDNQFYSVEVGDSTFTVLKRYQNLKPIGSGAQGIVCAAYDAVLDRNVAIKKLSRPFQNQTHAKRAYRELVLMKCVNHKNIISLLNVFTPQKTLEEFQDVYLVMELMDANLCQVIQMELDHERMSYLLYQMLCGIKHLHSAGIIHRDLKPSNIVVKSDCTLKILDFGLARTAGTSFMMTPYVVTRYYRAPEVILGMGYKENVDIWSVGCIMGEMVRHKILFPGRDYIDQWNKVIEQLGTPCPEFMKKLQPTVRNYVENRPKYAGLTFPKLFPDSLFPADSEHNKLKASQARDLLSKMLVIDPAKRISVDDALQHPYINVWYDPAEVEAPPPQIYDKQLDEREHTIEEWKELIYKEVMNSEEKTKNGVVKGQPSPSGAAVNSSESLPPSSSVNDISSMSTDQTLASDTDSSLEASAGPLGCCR

[5] = biological target: T2, Serine/threonine-protein kinase TAO2 (Homo sapiens, UniProt Q9UL54)
T2 sequence (Q9UL54 whole entry): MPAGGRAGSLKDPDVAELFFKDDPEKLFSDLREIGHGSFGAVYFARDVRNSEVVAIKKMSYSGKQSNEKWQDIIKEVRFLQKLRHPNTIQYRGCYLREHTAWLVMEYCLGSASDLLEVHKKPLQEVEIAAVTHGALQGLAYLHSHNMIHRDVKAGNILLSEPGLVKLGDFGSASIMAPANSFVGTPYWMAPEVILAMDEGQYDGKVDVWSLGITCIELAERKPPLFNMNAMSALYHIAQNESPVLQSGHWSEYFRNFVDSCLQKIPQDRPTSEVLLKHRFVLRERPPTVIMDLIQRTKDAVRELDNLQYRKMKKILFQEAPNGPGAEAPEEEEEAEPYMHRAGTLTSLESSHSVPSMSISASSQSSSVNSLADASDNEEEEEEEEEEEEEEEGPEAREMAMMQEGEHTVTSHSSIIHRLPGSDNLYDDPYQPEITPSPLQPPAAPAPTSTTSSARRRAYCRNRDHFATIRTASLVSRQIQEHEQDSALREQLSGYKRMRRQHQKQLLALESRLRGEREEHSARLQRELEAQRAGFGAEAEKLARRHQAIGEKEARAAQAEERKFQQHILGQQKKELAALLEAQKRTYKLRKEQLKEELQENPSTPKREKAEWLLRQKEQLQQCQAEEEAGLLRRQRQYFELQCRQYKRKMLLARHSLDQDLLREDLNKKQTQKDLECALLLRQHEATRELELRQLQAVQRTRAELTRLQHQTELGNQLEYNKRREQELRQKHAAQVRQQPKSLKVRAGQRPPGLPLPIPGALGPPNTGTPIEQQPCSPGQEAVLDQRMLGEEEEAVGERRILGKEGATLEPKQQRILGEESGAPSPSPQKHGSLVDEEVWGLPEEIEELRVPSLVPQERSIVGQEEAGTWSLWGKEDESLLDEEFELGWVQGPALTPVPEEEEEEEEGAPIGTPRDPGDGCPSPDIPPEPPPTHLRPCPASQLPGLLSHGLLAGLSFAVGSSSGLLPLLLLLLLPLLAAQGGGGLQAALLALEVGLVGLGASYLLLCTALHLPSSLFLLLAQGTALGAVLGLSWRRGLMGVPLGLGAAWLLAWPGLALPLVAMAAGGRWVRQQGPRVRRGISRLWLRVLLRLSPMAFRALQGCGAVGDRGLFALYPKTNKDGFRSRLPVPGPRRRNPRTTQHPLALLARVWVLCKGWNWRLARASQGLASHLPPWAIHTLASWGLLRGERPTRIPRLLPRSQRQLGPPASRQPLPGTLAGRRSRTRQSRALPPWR

[6] = biological target: Mitogen-activated protein kinase kinase kinase 20 (Homo sapiens, UniProt Q9NYL2)
Sequence of Mitogen-activated protein kinase kinase kinase 20 (Q9NYL2 whole entry): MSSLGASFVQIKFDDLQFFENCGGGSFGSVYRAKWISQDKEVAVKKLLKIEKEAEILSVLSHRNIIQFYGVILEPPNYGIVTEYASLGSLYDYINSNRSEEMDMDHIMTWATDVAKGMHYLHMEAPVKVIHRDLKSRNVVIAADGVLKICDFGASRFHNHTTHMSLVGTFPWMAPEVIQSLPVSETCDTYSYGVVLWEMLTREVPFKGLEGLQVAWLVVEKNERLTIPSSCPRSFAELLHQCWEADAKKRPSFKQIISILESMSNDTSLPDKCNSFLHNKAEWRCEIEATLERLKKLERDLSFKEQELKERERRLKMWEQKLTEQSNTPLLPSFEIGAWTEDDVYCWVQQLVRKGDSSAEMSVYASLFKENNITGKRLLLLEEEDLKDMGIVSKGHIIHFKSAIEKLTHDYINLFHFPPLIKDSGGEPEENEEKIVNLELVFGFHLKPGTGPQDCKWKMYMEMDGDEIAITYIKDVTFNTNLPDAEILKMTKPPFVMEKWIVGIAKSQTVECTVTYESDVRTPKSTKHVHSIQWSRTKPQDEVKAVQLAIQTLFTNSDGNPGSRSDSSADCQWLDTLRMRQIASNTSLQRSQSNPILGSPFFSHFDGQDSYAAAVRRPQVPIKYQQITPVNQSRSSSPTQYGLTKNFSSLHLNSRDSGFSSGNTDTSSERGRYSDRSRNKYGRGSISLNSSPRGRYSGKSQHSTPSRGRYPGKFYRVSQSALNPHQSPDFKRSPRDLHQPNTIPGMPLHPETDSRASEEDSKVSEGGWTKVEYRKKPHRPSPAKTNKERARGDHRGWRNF

[7] = biological target: Receptor-interacting serine/threonine-protein kinase 3 (Homo sapiens, UniProt Q9Y572)
Sequence of Receptor-interacting serine/threonine-protein kinase 3 (Q9Y572 whole entry): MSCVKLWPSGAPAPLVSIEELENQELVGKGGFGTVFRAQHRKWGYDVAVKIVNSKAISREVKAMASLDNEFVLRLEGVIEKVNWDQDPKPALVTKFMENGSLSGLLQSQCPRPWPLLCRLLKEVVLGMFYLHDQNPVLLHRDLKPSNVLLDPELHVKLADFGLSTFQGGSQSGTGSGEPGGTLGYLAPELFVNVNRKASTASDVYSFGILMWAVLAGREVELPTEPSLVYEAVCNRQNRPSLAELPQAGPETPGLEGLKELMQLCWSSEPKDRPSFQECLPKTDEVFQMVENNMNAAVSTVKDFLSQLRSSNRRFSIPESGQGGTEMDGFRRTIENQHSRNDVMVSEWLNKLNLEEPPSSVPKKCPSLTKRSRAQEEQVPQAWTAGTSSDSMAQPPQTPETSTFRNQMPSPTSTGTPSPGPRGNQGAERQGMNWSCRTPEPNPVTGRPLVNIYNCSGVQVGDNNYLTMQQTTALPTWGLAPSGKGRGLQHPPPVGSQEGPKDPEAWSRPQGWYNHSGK

[8] = biological target: T3, Uncharacterized protein FLJ45252 (Homo sapiens, UniProt Q6ZSR9); details: read-out: Kd apparent; k-562, colo 205, sk-n-be(2) and mv-4-11
T3 sequence (Q6ZSR9 whole entry): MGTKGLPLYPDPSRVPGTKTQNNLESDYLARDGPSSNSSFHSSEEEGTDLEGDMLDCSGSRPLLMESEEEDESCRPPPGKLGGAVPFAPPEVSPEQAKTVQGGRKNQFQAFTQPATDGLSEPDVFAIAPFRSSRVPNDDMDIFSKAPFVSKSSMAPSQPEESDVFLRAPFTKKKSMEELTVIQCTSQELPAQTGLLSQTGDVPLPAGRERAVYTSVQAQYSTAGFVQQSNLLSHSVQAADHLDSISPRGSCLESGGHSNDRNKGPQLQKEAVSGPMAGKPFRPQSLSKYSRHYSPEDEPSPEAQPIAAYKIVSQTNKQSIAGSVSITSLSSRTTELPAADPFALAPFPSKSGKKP

[9] = biological target: Serine/threonine-protein kinase MRCK gamma (Homo sapiens, UniProt Q6DT37)
Sequence of Serine/threonine-protein kinase MRCK gamma (Q6DT37 whole entry): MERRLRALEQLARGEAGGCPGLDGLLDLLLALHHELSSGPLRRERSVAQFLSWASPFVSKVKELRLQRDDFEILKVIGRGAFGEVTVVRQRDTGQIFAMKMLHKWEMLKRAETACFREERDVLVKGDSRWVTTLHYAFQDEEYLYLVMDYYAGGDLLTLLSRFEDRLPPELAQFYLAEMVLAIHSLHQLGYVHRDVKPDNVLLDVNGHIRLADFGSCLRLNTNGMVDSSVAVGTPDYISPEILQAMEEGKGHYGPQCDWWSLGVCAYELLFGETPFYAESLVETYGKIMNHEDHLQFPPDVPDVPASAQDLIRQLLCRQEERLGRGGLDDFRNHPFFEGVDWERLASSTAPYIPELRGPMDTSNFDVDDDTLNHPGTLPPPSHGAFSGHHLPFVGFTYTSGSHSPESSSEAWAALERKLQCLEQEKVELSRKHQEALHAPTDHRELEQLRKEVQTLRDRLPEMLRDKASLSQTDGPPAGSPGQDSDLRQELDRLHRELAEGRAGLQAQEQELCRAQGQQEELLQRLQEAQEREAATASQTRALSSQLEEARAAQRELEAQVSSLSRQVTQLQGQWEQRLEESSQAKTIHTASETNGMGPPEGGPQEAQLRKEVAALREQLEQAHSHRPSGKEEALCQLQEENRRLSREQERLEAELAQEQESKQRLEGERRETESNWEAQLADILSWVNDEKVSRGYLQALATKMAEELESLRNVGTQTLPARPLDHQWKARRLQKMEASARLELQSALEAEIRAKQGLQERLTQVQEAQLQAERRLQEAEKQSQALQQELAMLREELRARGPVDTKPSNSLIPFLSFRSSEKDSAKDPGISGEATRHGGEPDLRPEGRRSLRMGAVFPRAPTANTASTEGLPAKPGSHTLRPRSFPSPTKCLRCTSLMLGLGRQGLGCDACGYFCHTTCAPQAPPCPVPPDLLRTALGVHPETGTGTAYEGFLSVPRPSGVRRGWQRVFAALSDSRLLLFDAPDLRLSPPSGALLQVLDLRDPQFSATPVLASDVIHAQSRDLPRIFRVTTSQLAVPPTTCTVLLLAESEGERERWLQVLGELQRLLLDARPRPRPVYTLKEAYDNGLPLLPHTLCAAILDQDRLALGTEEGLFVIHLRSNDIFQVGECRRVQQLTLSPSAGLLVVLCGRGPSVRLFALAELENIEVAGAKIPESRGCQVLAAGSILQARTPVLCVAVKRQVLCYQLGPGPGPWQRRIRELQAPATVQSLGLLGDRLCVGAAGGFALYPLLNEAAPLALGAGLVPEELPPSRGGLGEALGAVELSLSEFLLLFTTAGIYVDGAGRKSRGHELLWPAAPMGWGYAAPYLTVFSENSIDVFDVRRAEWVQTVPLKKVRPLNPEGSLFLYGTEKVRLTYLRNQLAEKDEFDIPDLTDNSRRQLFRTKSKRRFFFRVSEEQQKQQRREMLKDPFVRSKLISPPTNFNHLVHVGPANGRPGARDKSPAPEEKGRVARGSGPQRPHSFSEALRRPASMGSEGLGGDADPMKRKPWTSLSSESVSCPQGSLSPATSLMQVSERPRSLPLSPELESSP

[10] = biological target: Tyrosine-protein kinase SYK (Homo sapiens, UniProt P43405)
Also: in the data inactive means no Kd found up to 30 µM.

Structure (SMILES) | Kd [1] | Kd [2] | Kd [3] | Kd [4] | Kd [5] | Kd [6] | Kd [7] | Kd [8] | Kd [9] | Kd [10]
C[C@@H](NC(=O)c1ncnc(N)c1Cl)c1ncc(C(=O)Nc2cc(C(F)(F)F)c(Cl)cn2)s1 [TOVORAFENIB] | > 30 µM (inactive) | > 30 µM (inactive) | > 30 µM (inactive) | > 30 µM (inactive) | > 30 µM (inactive) | 0.45 µM (active) | 1.8 µM (active) | > 30 µM (inactive) | > 30 µM (inactive) | > 30 µM (inactive)
NC(=O)Nc1cc(-c2cccc(F)c2)sc1C(=O)N[C@H]1CCCNC1 [AZD-7762] | > 30 µM (inactive) | 0.139 µM (active) | > 30 µM (inactive) | > 30 µM (inactive) | > 30 µM (inactive) | > 30 µM (inactive) | > 30 µM (inactive) | 0.12 µM (active) | > 30 µM (inactive) | 1.48 µM (active)
O=C(Nc1c[nH]nc1-c1nc2cc(CN3CCOCC3)ccc2[nH]1)NC1CC1 [AT-9283] | > 30 µM (inactive) | > 30 µM (inactive) | 0.021 µM (active) | 0.358 µM (active) | > 30 µM (inactive) | > 30 µM (inactive) | > 30 µM (inactive) | 0.024 µM (active) | > 30 µM (inactive) | 0.116 µM (active)
Cn1cc(-c2cnn3c(N)c(Br)c([C@@H]4CCCNC4)nc23)cn1 [SCH-900776] | > 30 µM (inactive) | > 30 µM (inactive) | > 30 µM (inactive) | > 30 µM (inactive) | > 30 µM (inactive) | > 30 µM (inactive) | > 30 µM (inactive) | > 30 µM (inactive) | > 30 µM (inactive) | > 30 µM (inactive)
CCn1c(C(=O)N(C2CC2)C2CC2)cc2c3c(ncn3C)c(Nc3cc(C)n(C)n3)nc21 [BMS-911543] | > 30 µM (inactive) | > 30 µM (inactive) | > 30 µM (inactive) | > 30 µM (inactive) | > 30 µM (inactive) | > 30 µM (inactive) | > 30 µM (inactive) | > 30 µM (inactive) | > 30 µM (inactive) | > 30 µM (inactive)
FC(F)(F)c1ccc(/C=C/c2nc(COc3ccc(CCCCn4ccnn4)cc3)co2)cc1 [MUBRITINIB] | > 30 µM (inactive) | > 30 µM (inactive) | > 30 µM (inactive) | > 30 µM (inactive) | > 30 µM (inactive) | > 30 µM (inactive) | > 30 µM (inactive) | > 30 µM (inactive) | > 30 µM (inactive) | > 30 µM (inactive)
